One may read the IC50 as the concentration that inhibits the measured activity by half. Low values mean greater potency, high ones weaker potency.

This is an account of results in ChEMBL document CHEMBL1150586, “Goniolactones A-F, six new styrylpyrone derivatives from the roots of Goniothalamus cheliensis” (J Nat Prod, 2002).

Common to all, as to assay type: functional, cell-based
The test system of one assay is KB. Kind of assay: Cytotoxicity against human KB cells after 5 days by MTT assay. As to conditions: 120 h. On the technique in general: Tetrazolium assays rely on reduction of a dye to a coloured formazan, in cell work by metabolically active cells.
For a further assay, the system named is A2780. The assay can be described thus: Cytotoxicity against human A2780 cells after 5 days by MTT assay. As to conditions: A2780, 120 h.
The subject of the next assay is HCT-8. Kind of assay: Cytotoxicity against human HCT8 cells after 5 days by MTT assay. To be noted: HCT-8, 120 h.

Consider `O=C1C=CC[C@H]([C@H](O)[C@@H](c2ccccc2)c2c(O)cc3c(c2O)C(=O)C[C@@H](c2ccccc2)O3)O1` [GONIOLACTONE B], for which the values for the IC50 in the assay on KB, with A2780 and in the assay on HCT-8 were 7.23 µM, 7.4 µM and 4.43 µM, respectively.
